According to patent US8252832B2, “Kinesin inhibitors as cancer therapeutics” (Novartis AG, priority 2007, dated 2012):
Where “and” joins values, the source holds several entries; their conditions need not be identical. Identical values can stand only once.

Tests used:
[1] = tested on: MV4; 11 human AML subcutaneous xenograft tumors; assay: Subcutaneous MV4; 11 tumor xenograft model, tumor response; assay type: in vivo, mouse
Experimental: Subcutaneous tumor efficacy studies were performed using outbred athymic nu/nu mice approximately 6-8 weeks old (Charles River Laboratories, Hollister, Calif.). The efficacy study in the disseminated disease model was performed using immunodeficient NOD-SCID female mice approximately 7-8 weeks old (Jackson Laboratories, Bar Harbor, Me.). […] Routine animal care and assurance of welfare were as described above.
Human MV4; 11 acute myelogenous leukemia cells were obtained from American Tissue Culture Collection (catalog #CRL-9591, Rockville, Md.) and tested to be free of Mycoplasma sp. and murine viruses in the IMPACT1 PCR assay panel (RADIL, University of Missouri, Columbia, Mo.). For the disseminated disease model, a stable pool of MV4; 11 cells expressing the luciferase gene was received from Fangxian Sun at the Genomics Institute of the Novartis Research Foundation in San Diego, Calif. (MV4; 11-luc). The MV4; 11 cells were grown in Iscove's modified Dulbecco's medium (Mediatech Inc., catalog #15-016-CV) supplemented with 10% fetal bovine serum (JRH Biosciences, catalog #12003-1000M), 4 mM L-glutamine and 5 ng/mL recombinant human […] (GM-CSF) (R&D Systems, catalog #215-GM). MV4; 11-luc were grown in the same media, but with the addition of 2 micrograms/mL of puromycin for selection of luciferase expression. These cells were grown as suspension cultures, maintained at 37° C. in a humidified atmosphere containing 5% carbon dioxide. Cells were cultured for fewer than 10 passages prior to use. Cells were harvested at approximately 2 million cells/mL, and centrifuged at ˜800×g for 5 minutes at 4° C. and then resuspended in a cold HBSS (Mediatech Inc., catalog #21-021-CV) at a concentration of 25 million cells/mL (containing 50% Matrigel™, BD Biosciences, catalog #354234) for implantation subcutaneously (injection volume of 0.2 mL) or at a concentration of 100 million cells/mL for implantation intravenously (i.v.) via the tail vein (injection volume of 0.1 mL). Mice were irradiated with 3 gray for 3 minutes one day prior to the i.v. cell implant.
The compound IIa (free base) and SB-715992 (free base) were formulated in 20% Captisol for a dose volume of 8 mL/kg. Doses were adjusted to each animal's body weight.
For the two efficacy evaluations in the subcutaneous tumor model, 10 million cells combined in a 1:1 mixture of HBSS and Matrigel™ were injected subcutaneously in the right flank in a total volume of 0.2 mL/mouse. […] Tumor volume was calculated as (L×W2)/2.

[2] = HCT116 tumor xenograft model, host response (body weight, survival, neutrophils); assay type: in vivo, mouse; details: q4d × 3; for Neutrophils/ul 72 h post-dose +/− S.D.: 72 h after last dose
Experimental: The cell line HCT-116 has been widely used in the evaluation of mitotic inhibitors such as microtubule disruptors, mitotic kinase inhibitors and KSP inhibitors. A multi-dose efficacy study on a […] (q4d×3) dosing schedule was performed. Experiments were performed using outbred athymic nu/nu mice approximately 6-8 weeks old (Charles River Laboratories, Hollister, Calif.). […] Mice were housed 4-5 animals per cage in clear polycarbonate micro-isolator cages with a 12-hour light, 12-hour dark cycle at temperatures between 70-80 degrees Fahrenheit and 30-70% relative humidity. Food (Purina rodent chow pellets) and water were provided ad libitum. Mice were handled in accordance with Novartis ACUC regulations and guidelines and the ILAR Guide for the Care and Use of Laboratory Animals. Experiments were performed in an AAALAC accredited facility under an ACUC approved protocol.
Compound IIa (free base) and SB-715992 (ispinesib, a KSP inhibitor by Cytokinetics that is in clinical trials; as its free base) were formulated in 20% Captisol® for all the above doses for a dose volume of 8 mL/kg. Doses were adjusted to each animal's body weight.
Female nu/nu mice (Charles River, Hollister, Calif.) were injected subcutaneously in the right flank with 5 million HCT-116 tumor cells suspended in Hank's Balanced Salt Solution (HBSS) in a total volume of 0.1 mL/mouse. For the efficacy studies, mice were randomized 10 days post-implant. […] Tumor volume was calculated as (L×W2)/2. […] Percent treatment/control (T/C) values were calculated using the following formula: % T/C=100×ΔT/ΔC
Since a dose as low as 1.25 mg/kg on a q4d×3 schedule induced regression of HCT116 xenografts, the efficacy study was repeated with a range of doses from 2 to 0.125 mg/kg to observe a dose response and determine how low a dose can be given to induce tumor regression. […] Only the 7.5 mg/kg dose of SB-715992 induced tumors to regress. Additionally, 72 hrs after the last dose, blood was collected to compare the circulating neutrophil levels among groups. Neutrophils were reduced in a dose responsive manner, similar to the tumor efficacy effect.

[3] = Study 2, 0.13 mg/kg, q4d × 3, i.v
[4] = Study 2, 0.25 mg/kg, q4d × 3, i.v
[5] = Study 2, 0.5 mg/kg, q4d × 3, i.v
[6] = Study 2, 1.8 mg/kg, Q4d × 3, i.v
[7] = Study 2, 3.5 mg/kg, Q4d × 3, i.v
[8] = Study 2, 7.5 mg/kg, Q4d × 3, i.v

## CC(C)(C)[C@H](c1nc(-c2cc(F)ccc2F)cn1Cc1ccccc1)N(CC[C@H](N)CF)C(=O)CO [Compound IIa]
[1]; 0.625 mg/kg, q4d × 3, i.v.
  CR (complete tumor regressions): 0
  Δ Tumor volume, Day 24: −32 ± 172 mm^3
[1]; 0.625 mg/kg, q4d × 3, i.v., D10
  % Max Regression (Day): 69%
[1]; 4 mg/kg, q4d × 3, i.v.
  Δ Tumor volume, Day 24: −176 ± 31 mm^3
[1]; 4 mg/kg, q4d × 3, i.v., D60
  % Max Regression (Day): 100, %
[1]; 4 mg/kg, q4d × 3, i.v., listed as COMPOUND IIa
  CR (complete tumor regressions): 9
[1]; 4 mg/kg, q4d × 3, i.v., listed as compound IIa
  CR (complete tumor regressions): 9/9
[1]; [3]
  CR (complete tumor regressions): 0
  Δ Tumor volume, Day 21: 921 ± 341 mm^3
  ΔT/ΔC, Day 21 (%): 161%
[1]; [4]
  CR (complete tumor regressions): 0
  Δ Tumor volume, Day 21: 765 ± 196 mm^3
  ΔT/ΔC, Day 21 (%): 133%
[1]; [5]
  CR (complete tumor regressions): 0
  Δ Tumor volume, Day 21: 114 ± 110 mm^3
  ΔT/ΔC, Day 21 (%): 20%
[1]; Study 2, 0.5 mg/kg, q4d × 3, i.v, D10
  % Max. Regression (Day): 55 (D10) %
[1]; Study 2, 1 mg/kg, q4d × 3, i.v
  CR (complete tumor regressions): 6
  Δ Tumor volume, Day 21: −194 ± 27 mm^3
[1]; Study 2, 1 mg/kg, q4d × 3, i.v, D63
  % Max. Regression (Day): 89 (D63) %
[1]; Study 2, 2 mg/kg, q4d × 3, i.v
  CR (complete tumor regressions): 5
  Δ Tumor volume, Day 21: −201 ± 23 mm^3
[1]; Study 2, 2 mg/kg, q4d × 3, i.v, D63
  % Max. Regression (Day): 87 (D63) %
[2]; 0.125 mg/kg, i.v.
  Survival (alive/total): 9/9
[2]; 0.25 mg/kg, i.v.
  Survival (alive/total): 9/9
[2]; 0.5 mg/kg, i.v.
  Survival (alive/total): 9/9
[2]; 1 mg/kg, i.v.
  Survival (alive/total): 9/9
[2]; 1.25 mg/kg, i.v.
  Survival (alive/total): 9/9
[2]; 2 mg/kg, i.v., (body weight loss)
  Survival (alive/total): 8/9 (body
[2]; 2.5 mg/kg, i.v.
  Survival (alive/total): 9/9
[2]; 5 mg/kg, i.v., (body weight loss)
  Survival (alive/total): 8/9 (body

## CC(=O)O[C@H]1C(=O)[C@@]2(C)[C@H]([C@H](OC(=O)c3ccccc3)[C@]3(O)C[C@H](OC(=O)[C@H](O)[C@@H](NC(=O)c4ccccc4)c4ccccc4)C(C)=C1C3(C)C)[C@]1(OC(C)=O)CO[C@@H]1C[C@@H]2O [Paclitaxel, reference compound]
[1]; 1 mg/kg, q4d × 3, i.p.
  CR (complete tumor regressions): 7
  Δ Tumor volume, Day 24: −151 ± 63 mm^3
[1]; 1 mg/kg, q4d × 3, i.p., D46
  % Max Regression (Day): 75%
[1]; 1 mg/kg, q4d × 3, i.p., listed as paclitaxel
  CR (complete tumor regressions): 7/9
[2]; 30 mg/kg, i.p.
  Survival (alive/total): 9/9

## Cc1ccc(C(=O)N(CCCN)[C@@H](c2nc3cc(Cl)ccc3c(=O)n2Cc2ccccc2)C(C)C)cc1 [SB-715992, Ispinesib, reference compound]
[1]; 15 mg/kg, q4d × 3, i.v.
  CR (complete tumor regressions): 6/9 and 6
  Δ Tumor volume, Day 24: −211 ± 28 mm^3
[1]; 15 mg/kg, q4d × 3, i.v., D60
  % Max Regression (Day): 98%
[1]; [6]
  CR (complete tumor regressions): 0
  Δ Tumor volume, Day 21: 339 ± 218 mm^3
  ΔT/ΔC, Day 21 (%): 59%
[1]; [7]
  CR (complete tumor regressions): 0
  Δ Tumor volume, Day 21: 251 ± 132 mm^3
  ΔT/ΔC, Day 21 (%): 44%
[1]; Study 2, 3.5 mg/kg, Q4d × 3, i.v, D10
  % Max. Regression (Day): 41 (D10) %
[1]; [8]
  CR (complete tumor regressions): 3
  Δ Tumor volume, Day 21: −204 ± 20 mm^3
[1]; Study 2, 7.5 mg/kg, Q4d × 3, i.v, D31
  % Max. Regression (Day): 75 (D31) %
[2]; 1.75 mg/kg, i.v.
  Survival (alive/total): 9/9
  Neutrophils/ul 72 h post-dose +/− S.D.: 1026 ± 229 µL⁻¹
[2]; 1.75 mg/kg, i.v., D3
  Max. Δ body weight (Day): -0.6 ± 0.58 g
  Max. Δ body weight (Day) (%): −2.3 ± 0.51%
[2]; 3.5 mg/kg, i.v.
  Survival (alive/total): 9/9
  Neutrophils/ul 72 h post-dose +/− S.D.: 731 ± 391 µL⁻¹
[2]; 3.5 mg/kg, i.v., D3
  Max. Δ body weight (Day): -0.5 ± 0.37 g
  Max. Δ body weight (Day) (%): −2.0 ± 0.44%
[2]; 3.5 mg/kg, i.v., D4
  Max. Δ body weight (Day): -0.7 ± 0.05 g
  Max. Δ body weight (Day) (%): −2.7 ± 0.17%
[2]; 7.5 mg/kg, i.v.
  Survival (alive/total): 9/9
  Neutrophils/ul 72 h post-dose +/− S.D.: 476 ± 112 µL⁻¹
[2]; 7.5 mg/kg, i.v., D4
  Max. Δ body weight (Day): -0.3 ± 0.05 g
  Max. Δ body weight (Day) (%): −1.3 ± 0.25%
[2]; 7.5 mg/kg, i.v., D10
  Max. Δ body weight (Day): -0.7 ± 1.1 g
  Max. Δ body weight (Day) (%): −3.0 ± 2.49%
[2]; 15 mg/kg, i.v.
  Survival (alive/total): 9/9
[2]; 15 mg/kg, i.v., D7
  Max. Δ body weight (Day): -2.5 ± 0.2 g
  Max. Δ body weight (Day) (%): −10.6 ± 0.75%
